Experimental data from ChEMBL document CHEMBL1128909, “Catechol based inhibitors of 15-lipoxygenase” (Bioorg Med Chem Lett, 1996).

Assays:
[1] = target: T1, Polyunsaturated fatty acid lipoxygenase ALOX12 (Homo sapiens, UniProt P18054); assay: Inhibitory activity against human platelet 12-lipoxygenase
T1 sequence (P18054 whole entry): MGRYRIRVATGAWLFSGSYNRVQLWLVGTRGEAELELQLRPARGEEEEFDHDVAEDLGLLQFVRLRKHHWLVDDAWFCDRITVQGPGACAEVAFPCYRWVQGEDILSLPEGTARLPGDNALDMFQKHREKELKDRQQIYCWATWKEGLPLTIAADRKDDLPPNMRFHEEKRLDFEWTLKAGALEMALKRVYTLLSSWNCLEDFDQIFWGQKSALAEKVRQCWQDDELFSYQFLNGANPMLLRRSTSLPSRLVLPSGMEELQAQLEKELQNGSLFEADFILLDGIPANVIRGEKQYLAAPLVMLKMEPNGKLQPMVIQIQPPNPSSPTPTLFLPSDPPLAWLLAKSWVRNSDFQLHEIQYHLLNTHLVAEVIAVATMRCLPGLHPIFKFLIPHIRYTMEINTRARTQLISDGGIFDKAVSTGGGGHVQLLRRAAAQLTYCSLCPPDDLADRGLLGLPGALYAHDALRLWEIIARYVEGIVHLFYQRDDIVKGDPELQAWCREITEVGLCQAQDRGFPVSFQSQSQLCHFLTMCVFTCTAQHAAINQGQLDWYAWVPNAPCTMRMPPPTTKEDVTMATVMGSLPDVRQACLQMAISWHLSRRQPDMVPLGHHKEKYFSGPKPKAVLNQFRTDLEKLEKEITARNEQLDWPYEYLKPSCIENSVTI

[2] = target: T2, Polyunsaturated fatty acid 5-lipoxygenase (Rattus norvegicus, UniProt P12527); assay: Inhibitory activity against rat basophilic leukemia cell 5-lipoxygenase (5-LO)
T2 sequence (P12527 whole entry): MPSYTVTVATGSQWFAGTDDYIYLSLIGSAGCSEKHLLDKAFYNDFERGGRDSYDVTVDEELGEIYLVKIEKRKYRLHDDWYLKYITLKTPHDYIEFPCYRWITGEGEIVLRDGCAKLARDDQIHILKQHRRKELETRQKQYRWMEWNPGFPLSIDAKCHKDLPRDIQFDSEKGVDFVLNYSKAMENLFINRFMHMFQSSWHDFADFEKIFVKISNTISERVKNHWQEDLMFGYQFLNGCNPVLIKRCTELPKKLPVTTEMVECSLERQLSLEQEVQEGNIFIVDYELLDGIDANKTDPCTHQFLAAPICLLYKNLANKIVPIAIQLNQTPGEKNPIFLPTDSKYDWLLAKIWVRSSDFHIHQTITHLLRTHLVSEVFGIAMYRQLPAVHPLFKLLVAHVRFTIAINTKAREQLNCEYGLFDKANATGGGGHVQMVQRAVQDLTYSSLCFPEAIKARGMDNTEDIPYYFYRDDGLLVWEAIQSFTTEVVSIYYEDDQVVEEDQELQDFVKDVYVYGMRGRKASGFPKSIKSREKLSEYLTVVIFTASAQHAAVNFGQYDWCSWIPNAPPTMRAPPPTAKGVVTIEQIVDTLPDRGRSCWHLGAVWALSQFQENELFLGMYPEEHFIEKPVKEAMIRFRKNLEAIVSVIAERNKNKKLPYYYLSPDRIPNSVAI

IC50 [1]: 5000 nM
IC50 [2]: 280 nM
Compound: O=C(Nc1ccc(CCc2ccc(O)c(O)c2)cc1)c1ccccc1O
